We go through one compound from patent US9163044B2, “Carbon monoxide releasing molecules and uses thereof” (Alfama, Inc., priority 2011, dated 2015).

A short description of series [1]: preliminary safety studies in mice. Conditions: doses up to 1 g/kg. The series is classed as in vivo.
A short description of series [2]: carboxyhemoglobin (COHb) levels in treated mice. The series is classed as in vivo, CD-1 female mice. The method, then: FIG. 9 depicts the percentage of carboxyhemoglobin (CO-Hb) measured in CD-1 female mice following Compound 3b administration at 300 mg/kg, intravenously. The CO-Hb was quantified over 80 min by using an oximeter (Avoximeter 4000 from A-vox Instruments). The base line of CO-Hb measured with this instrument is 3-4%.

Series [3] can be described thus: CO released from Compound 3b in phosphate buffer pH 7.4 alone or with human or rat microsomes (FIG. 8). The note with it: 37° C. The format is in vitro ADME. As to the method:
The vials were closed and after mixing, the samples were warmed to 37° C. for 5 minutes before an aliquot (25 μL, 0.5 mg protein content) of rat liver microsomes (BD, Cat. No. 452511) or human liver microsomes (BD, Cat. No. 452161) was added to each vial. In parallel analogous vials with all the reagents except the microsomes were prepared. Due to the light-sensitivity of the molybdenum compounds, the reactions were performed in the dark. The samples were incubated at 37° C. and gas samples of the headspace (from 100 μL to 500 μL) of the vials were removed with a gas-tight syringe after 5, 10, 15, 30, and 60 minutes (in some cases samples were also taken at 1, 2, 3 or 4 minutes) upon microsomes addition. The gas samples were then injected into empty sealed vials (8 mL volume) and the amount of CO present in the vials was measured using GC-RCP.
FIG. 8 depicts the amount of CO released from Compound 3b, expressed in equivalents of CO, in phosphate buffer pH 7.4 (“buffer”), phosphate buffer pH 7.4 in the presence of human microsomes (“human”) or rat microsomes (“rat”). The assay was performed in closed vials during 1 hour at 37° C. A gas aliquot was removed from the air space of the vials and CO concentration was determined by GC-RCP at different time points.

Series [4] relates to primary hepatocytes from C57BL/6 mice. Put plainly: ex-vivo model of apoptosis (ActD/TNF-α). The format is cell-based, mouse. The note with it: 2×150 μg/0.5 mL well (2×600 μM), 24 hours. The method, then:
FIGS. 21A-21B depict the effect of Compound 3b in an ex-vivo model of apoptosis. Apoptosis of primary hepatocytes from C57BL/6 mice was induced with Actinomycin D (ActD; 200 ng/mL) and Tumour Necrosis Factor-α (TNF-α; 10 ng/mL). Compound 3b was added to the cultures 1 hour before and 1 hour after the addition of the apoptosis inducers ActD/TNF-α. Compound 3b was tested at concentrations of 25, 50, 100 and 150 μg/0.5 mL well. Hepatocytes survival was determined 24 hours after the addition of the apoptosis inducers. FIG. 21A: Percentage of increase in survival ActD/TNF-α treated cells in the presence of Compound 3b, relative to cells treated with only the apoptosis inducers. FIG. 21B: Toxicity of the Compound 3b doses on murine hepatocytes (not treated with apoptosis inducers). Data are the mean±S.D. of 3-5 independent experiments (3-5 livers from different mice).

As to `[C-]#[N+]C(C)(C)C(=O)O.[C-]#[N+]C(C)(C)C(=O)O.[C-]#[N+]C(C)(C)C(=O)O.[C-]#[O+].[C-]#[O+].[C-]#[O+].[Mo]` [Compound 3b, tricarbonyl[tris(2-isocyano-2-methyl-propionic acid)]Mo(0)], the “toxicity in preliminary safety studies” value in series [1] is “no toxicity”. Further, the COHb in blood in series [2] (300 mg/kg i.v., over 80 min, base line 3-4%) was at most 7.5%. For the same compound, in series [2] (therapeutic doses, mice), the “symptomatic levels of COHb in blood” value is “did not cause symptomatic levels of COHb”. Moreover, the “factor by which microsomes accelerate CO release” value in series [3] (human or rat microsomes versus buffer, 1 hour) is reported as 4.0-5.5. The “CO released in pH 7.4 buffer in 1 hour” value in series [3] (phosphate buffer pH 7.4, no microsomes) is given as 0.25 mol equiv. of CO. Further, in series [4], the “increase in survival of ActD/TNF-α treated hepatocytes relative to inducers only” value is listed as “more than 125%”.
